Read-outs that look alike come from different tables or passages of the source.
Tests used:
[1] = test system: subcutaneous pentylenetetrazole induced convulsions (seizure threshold); experiment: subcutaneous pentylenetetrazole test (s.c. Met); format: in vivo; details: rats, table title: oral administration; for ED50: Rattus norvegicus, read-out: sc Met ED50
Source text: (§1) The first model the maximal electroshock seizure test (MES), is used to show efficacy for antiepileptic agents against partial and generalized seizure type epilepsy, the common epilepsy among therapy resistant epileptic patients. The second model, the subcutaneous pentylenetetrazole test (s.c. Met) which measures seizure threshold and is a standard screening procedure to show efficacy for agents against […] seizures. In these studies, convulsions were inhibited or prevented after oral (p.o.) and intraperitoneal (ip) administration of the compounds.

[2] = Neurotoxicity, Gait and Stance test
Experimental: Neurotoxicity of the agents was assessed in rats (p.o. and ip administration) in the Gait and Stance test and in mice in the Rotarod Ataxia test, which assess minimal neurotoxicity.

audiogenic seizures = audiogenic seizures in Frings audiogenic seizure susceptible mice; format: in vivo; details: for potency compared with VPA in audiogenic seizure model: in words
Experimental: In mice the compounds were tested for their ability to protect against audiogenic seizures in the Frings audiogenic seizure susceptible mice after ip administration. This model is considered as a good screening model in pharmacologic studies for CNS active compounds.

[3] = test system: maximal electroshock seizure (MES); experiment: maximal electroshock seizure test (MES); format: in vivo; details: rats; for anticonvulsant activity in the MES test: result in words; for ED50: Rattus norvegicus
Source text: as §1

[4] = Pharmacokinetics in mongrel dogs; format: in vivo
Experimental: The pharmacokinetics of Compound A were evaluated in mongrel dogs.

6 Hz psychomotor seizure = 6 Hz psychomotor seizure model; format: in vivo; details: Mus musculus; mice ip, stimulation intensity 22 mA
[5] = po, p.o. administration, read-out: MES ED50 (mg/kg po)

CCCC(CCC)C(=O)NCCS(=O)(=O)N(C)C [B, N-(2-Propylpentanoyl)taurine-N′,N′-dimethylamide]
sc Met ED50 [1]: >200 mg/kg | Neurotoxicity TD50 (mg/kg ip) ([2]; rats, ip administration): 175 mg/kg | TD50 compared with VPA ([2]; rats, in words): significantly higher than TD50 for VPA | Audiogenic seizures ED50 (audiogenic seizures; ip administration): 134 mg/kg | potency compared with VPA in audiogenic seizure model (audiogenic seizures; ip): more potent than VPA | MES ED50 (mg/kg ip) ([3]; ip administration): 50 mg/kg | MES ED50 (mg/kg po) ([3]; p.o. administration): >160 mg/kg | anticonvulsant activity in the MES test [3]: showed anticonvulsant activity

CCCC(CCC)C(=O)NCCS(=O)(=O)NC(C)C [C, N-(2-Propylpentanoyl)taurine-N′-isopropylamide]
sc Met ED50 [1]: >250 mg/kg | Neurotoxicity TD50 (mg/kg ip) ([2]; rats, ip administration): 627 mg/kg | TD50 compared with VPA ([2]; rats, in words): significantly higher than TD50 for VPA | Audiogenic seizures ED50 (audiogenic seizures; ip administration): 126 mg/kg | potency compared with VPA in audiogenic seizure model (audiogenic seizures; ip): more potent than VPA | MES ED50 (mg/kg ip) ([3]; ip administration): 52 mg/kg | MES ED50 (mg/kg po) ([3]; p.o. administration): 63 mg/kg | anticonvulsant activity in the MES test [3]: showed anticonvulsant activity

CCCC(CCC)C(=O)NCCS(N)(=O)=O [Compound A, N-(2-Propylpentanoyl)taurinamide]
ED50 [1]: > 250 mg/kg | half-life ([4]; dog, in vivo): 5.6 h | Vd ([4]; dog, in vivo, read-out: Volume of distribution at steady state (Vss)): 0.84 L/kg | clearance ([4]; dog, in vivo, read-out: total body clearance (CL) (converted)): 1.83 mL/min/kg | liver extraction ratio ([4]; in words): low | TD50 compared with VPA ([2]; rat, in vivo): significantly higher than TD50 for VPA | Neurotoxicity TD50 (mg/kg ip) ([2]; rat, in vivo, ip): >300 mg/kg | TD50 ([2]; rat, in vivo, ip): > 300 mg/kg | Neurotoxicity TD50 (mg/kg po) ([2]; rat, in vivo, po): >500 mg/kg | TD50 ([2]; rat, in vivo, po): > 500 mg/kg | ED50 (audiogenic seizures; Mus musculus, ip, ip administration): 50 to 140 mg/kg | Audiogenic seizures ED50 (audiogenic seizures; ip administration): 51 mg/kg | audiogenic seizure ED50 compared with VPA (audiogenic seizures; ip, relative to VPA): 3 times lower | ED50 [3, 5]: 65 mg/kg | ED50 ([3]; ip administration, read-out: MES ED50 (mg/kg ip)): 50 mg/kg | anticonvulsant activity in the MES test [3]: showed anticonvulsant activity | ED50 (6 Hz psychomotor seizure): 188 mg/kg

CCCC(CCC)C(=O)NCCS(=O)(=O)N(CC)CC [N-(2-n-propylpentanoyl)taurine-N′,N′-diethylamide]
anticonvulsant activity in the MES test [3]: showed anticonvulsant activity

CCCC(CCC)C(=O)NCCS(=O)(=O)NCC [N-(2-n-propylpentanoyl)taurine-N′-ethylamide]
anticonvulsant activity in the MES test [3]: showed anticonvulsant activity

CCCC(CCC)C(=O)NCCS(=O)(=O)NC [N-(2-n-propylpentanoyl)taurine-N′-methylamide]
anticonvulsant activity in the MES test [3]: showed anticonvulsant activity

CCCC(CCC)C(=O)O [VPA, valproic acid, reference compound]
ED50 [1]: 180 mg/kg | TD50 ([2]; rat, in vivo, po): 200 mg/kg | ED50 [3, 5]: 490 mg/kg

Source: patent US6958416B2, “Valproyltaurinamide derivatives as anticonvulsant amd CNS active agents” (Yissum Research Development Company of the Hebrew …, priority 2001, dated 2005)
